Assay results: patent publication US20240024403A1, “Compositions and Methods for Managing Weight” (Unigen, Inc., priority 2012, published 2024)

Assay: High fat diet induced obesity (DIO) mouse model
Type: in vivo, C57CL/6J mice
Parameters: Epididymal Fat weight / Retroperitoneal Fat weight / Total Fat (sum of the three fat deposits) / Retroperitoneal Fat / Total Fat / Epididymal Fat, absolute weight / Retroperitoneal Fat, absolute weight: unit not given here
Details: for Weight (total body weight) / Total Weight: in g (unit assumed)
Description: C57CL/6J mice aged 4-6 weeks (Korea Research Institute of Bioscience & Biotechnology, Ohchang, Korea) were housed in Polycarbonate cages (five mice per cage) in a room with a 12 hr:12 hr light-dark cycle and an ambient temperature of 24° C. All the mice were fed a commercial chow diet for 1 week after arrival in the animal facility. Mice were then divided into normal and obesity groups and fed with normal diet (ND) and high fat diets (HFD) respectively. The HFD group was divided into multiple treatment groups: a high fat diet vehicle group (HFD), an orlistat (purchased as OTC drug Alli®) positive control treatment group (ORI, 40 mg/kg of animal weight, 2 times/day) and optionally a sibutramine positive control treatment group (10 mg/kg, 1 time/day). The HFD contained 340 g of fat/kg of HFD (310 g lard plus 30 g soybean oil; Harlan Laboratories, USA). The HFD was formulated to provide 60% of the total energy generated by the diet from fat by replacing carbohydrate energy with lard and soybean oil, whereas the normal diet (ND) group was fed a diet providing only 18% of the total diet energy from fat(Harlan Laboratories, USA).
Body weight was measured once each week and feed intake was measured twice per week. At the end of the experimental period, following a 12 hr. fasting period, the animals were anesthetized with ether, and blood was drawn from the abdominal vein. Liver and kidney and adipose tissues (epididymal, retroperitoneal, perirenal adipose tissues) were removed from each animal, rinsed with physiological saline, and weighed. Serum concentrations of glucose, total cholesterol, triglycerides, and LDL-cholesterol were determined using automatic analyzer (INTEGRA 400, Roche, Germany). Statistical significance of test results was measured using the Student's t-test.

[1] = DIO mice blood biochemistry, SIB 10 mg/kg, ORI 40 mg/kg, Mutamba extract 32 (G1) 1000 mg/kg, mean
[2] = DIO mice blood biochemistry, SIB 10 mg/kg, ORI 40 mg/kg, Mutamba extract 33-2 G1 1000 mg/kg, mean
[3] = DIO mice liver pathology score, SIB 10 mg/kg, ORI 40 mg/kg, Mutamba extract 32 (G1) 1000 mg/kg, mean
[4] = DIO mice, ORI 40 mg/kg, seven week study, mean
[5] = DIO mice, biochemistry parameters, G3, G4 1000 mg/kg oral two times per day
[6] = DIO mice, blood at end of study, ORI 40 mg/kg, mean
[7] = DIO mice, blood at end of study, ORI 40 mg/kg, G1 300 mg/kg (Morus:Magnolia 2:1)
[8] = DIO mice, blood at end of study, ORI 40 mg/kg, G1 1200 mg/kg (Morus:Yerba Mate 1:5)
[9] = DIO mice, liver pathology, ORI 40 mg/kg, mean
[10] = DIO mice, oral, seven weeks, combination (2:5) 700 mg/kg, ORI 40 mg/kg, group mean
[11] = DIO mice, oral, week 1, ORI 40 mg/kg, G1 700 mg/kg (Morus:Rosemary 2:5)
[12] = DIO mice, oral, week 1, ORI 40 mg/kg, G1 1200 mg/kg (Morus:Yerba Mate 1:5)
[13] = DIO mice, oral, week 2, ORI 40 mg/kg, G1 700 mg/kg (Morus:Rosemary 2:5)
[14] = DIO mice, oral, week 2, ORI 40 mg/kg, G1 1200 mg/kg (Morus:Yerba Mate 1:5)
[15] = DIO mice, oral, week 3, ORI 40 mg/kg, G1 700 mg/kg (Morus:Rosemary 2:5)
[16] = DIO mice, oral, week 3, ORI 40 mg/kg, G1 1200 mg/kg (Morus:Yerba Mate 1:5)
[17] = DIO mice, oral, week 4, ORI 40 mg/kg, G1 700 mg/kg (Morus:Rosemary 2:5)
[18] = DIO mice, oral, week 4, ORI 40 mg/kg, G1 1200 mg/kg (Morus:Yerba Mate 1:5)
[19] = DIO mice, oral, week 5, ORI 40 mg/kg, G1 700 mg/kg (Morus:Rosemary 2:5)
[20] = DIO mice, oral, week 5, ORI 40 mg/kg, G1 1200 mg/kg (Morus:Yerba Mate 1:5)
[21] = DIO mice, oral, week 6, ORI 40 mg/kg, G1 700 mg/kg (Morus:Rosemary 2:5)
[22] = DIO mice, oral, week 6, ORI 40 mg/kg, G1 1200 mg/kg (Morus:Yerba Mate 1:5)
[23] = DIO mice, oral, week 7, ORI 40 mg/kg, G1 700 mg/kg (Morus:Rosemary 2:5)
[24] = DIO mice, oral, week 7, ORI 40 mg/kg, G1 1200 mg/kg (Morus:Yerba Mate 1:5)
[25] = DIO mice, seven weeks, ORI 40 mg/kg, G1 300 mg/kg (Morus:Magnolia 2:1)
[26] = DIO mice, seven weeks, ORI 40 mg/kg, G1 1200 mg/kg (Morus:Yerba Mate 1:5)
[27] = DIO mice, week 1, G1-G4 1000 mg/kg oral gavage two times per day
[28] = DIO mice, week 2, G1-G4 1000 mg/kg oral gavage two times per day
[29] = DIO mice, week 3, G1-G4 1000 mg/kg oral gavage two times per day
[30] = DIO mice, week 4, G1-G4 1000 mg/kg oral gavage two times per day
[31] = DIO mice, week 5, G1-G4 1000 mg/kg oral gavage two times per day
[32] = DIO mice, week 6, G1-G4 1000 mg/kg oral gavage two times per day
[33] = DIO mice, week 7, G1-G4 1000 mg/kg oral gavage two times per day
[34] = DIO mice, G1-G4 1000 mg/kg oral gavage two times per day

## CCCCCCCCCCC[C@@H](C[C@@H]1OC(=O)[C@H]1CCCCCC)OC(=O)[C@H](CC(C)C)NC=O [ORI, orlistat]
[1]
  ALT: 40.42 U/L
  AST: 67.96 U/L
  HDL-C: 78.52 mg/dL
  LDL-C: 6.78 mg/dL
  T-chol: 184.40 mg/dL
  TG: 143.60 mg/dL
[2]
  LDL-C: 7.42 mg/dL
  T-chol: 182.40 mg/dL
  TG: 41.20 mg/dL
[3]
  Hepatocellular ballooning (0-2): 0.60
  Lobular Inflammation (0-3): 1.60
  Steatosis (0-3): 1.20
DIO mice liver pathology, sum of scores, SIB 10 mg/kg, ORI 40 mg/kg, Mutamba extract 32 (G1) 1000 mg/kg, mean
  NASH (sum): 3.40
[4]
  Food Intake: 3.195 g/day
  Weight Gain: 0.000 g/day
DIO mice, ORI 40 mg/kg, seven week study, body weight gain/food intake
  Food Efficiency Ratio (FER): 0.000
DIO mice, ORI 40 mg/kg, week 1, mean
  Weight Gain: −5.43
DIO mice, ORI 40 mg/kg, week 2, mean
  Weight Gain: −6.69
DIO mice, ORI 40 mg/kg, week 3, mean
  Weight Gain: −5.27
DIO mice, ORI 40 mg/kg, week 4, mean
  Weight Gain: −3.47
DIO mice, ORI 40 mg/kg, week 5, mean
  Weight Gain: −2.34
DIO mice, ORI 40 mg/kg, week 6, mean
  Weight Gain: −1.08
DIO mice, ORI 40 mg/kg, week 7, mean
  Weight Gain: 0.02
[5]
  ALP: 186.51 U/L
  ALT: 35.12 U/L
  AST: 62.03 U/L
  Glu: 267.22 mg/dL
  HDL-C: 74.22 mg/dL
  LDL-C: 7.56 mg/dL
  T-chol: 175.44 mg/dL
  TG: 46.78 mg/dL
  TP: 4.89 g/dL
[6]
  ALT: 21.83 U/L
  AST: 65.65 U/L
  TG: 27.83 mg/dL
[7]
  F-Glu (fasting glucose): 225.50 mg/dL
  LDL-C: 3.30 mg/dL
  T-Chol (total cholesterol): 134.00 mg/dL
  Triglyceride: 62.50 mg/dL
[8]
  F-Glu (fasting glucose): 225.50 mg/dL
  LDL-C: 3.30 mg/dL
  T-Chol (total cholesterol): 134.00 mg/dL
  Triglyceride: 62.50 mg/dL
[9]
  Hepatocellular ballooning (0-2): 0.67
  Lobular Inflammation (0-3): 1.33
  NASH (sum): 2.67
  Steatosis (0-3): 0.67
DIO mice, oral, seven weeks, combination 700 mg/kg, ORI 40 mg/kg, group mean
  Perirenal Fat: 0.43
DIO mice, oral, seven weeks, combination (2:5) 700 mg/kg, ORI 40 mg/kg, FER = body weight gain/food intake
  Food Efficiency Ratio (FER): 0.005
[10]
  Body Weight Gain: 0.012 g/day
  Food Intake: 2.711 g/day
DIO mice, oral, week 0, ORI 40 mg/kg, G1 700 mg/kg (Morus:Rosemary 2:5)
  Weight (total body weight): 42.39
DIO mice, oral, week 0, ORI 40 mg/kg, G1 1200 mg/kg (Morus:Yerba Mate 1:5)
  Total Weight: 38.40
DIO mice, oral, week 1, ORI 40 mg/kg, G1 300 mg/kg (Morus:Magnolia 2:1)
  Body Weight Gain: −3.20
[11]
  Body Weight Gain: −3.56
  Weight (total body weight): 38.83
[12]
  Weight Gain: −3.20
  Total Weight: 35.20
DIO mice, oral, week 2, ORI 40 mg/kg, G1 300 mg/kg (Morus:Magnolia 2:1)
  Body Weight Gain: −4.88
[13]
  Body Weight Gain: −5.75
  Weight (total body weight): 36.64
[14]
  Weight Gain: −4.88
  Total Weight: 33.58
DIO mice, oral, week 3, ORI 40 mg/kg, G1 300 mg/kg (Morus:Magnolia 2:1)
  Body Weight Gain: −3.34
[15]
  Body Weight Gain: −5.91
  Weight (total body weight): 36.48
[16]
  Weight Gain: −3.34
  Total Weight: 35.12
DIO mice, oral, week 4, ORI 40 mg/kg, G1 300 mg/kg (Morus:Magnolia 2:1)
  Body Weight Gain: −2.61
[17]
  Body Weight Gain: −3.82
  Weight (total body weight): 38.57
[18]
  Weight Gain: −2.61
  Total Weight: 35.84
DIO mice, oral, week 5, ORI 40 mg/kg, G1 300 mg/kg (Morus:Magnolia 2:1)
  Body Weight Gain: −2.04
[19]
  Body Weight Gain: −2.33
  Weight (total body weight): 40.07
[20]
  Weight Gain: −2.04
  Total Weight: 36.41
DIO mice, oral, week 6, ORI 40 mg/kg, G1 300 mg/kg (Morus:Magnolia 2:1)
  Body Weight Gain: −1.65
[21]
  Body Weight Gain: −1.44
  Weight (total body weight): 40.95
[22]
  Weight Gain: −1.65
  Total Weight: 36.80
DIO mice, oral, week 7, ORI 40 mg/kg, G1 300 mg/kg (Morus:Magnolia 2:1)
  Body Weight Gain: −0.07
[23]
  Body Weight Gain: 0.60
  Weight (total body weight): 42.99
[24]
  Weight Gain: −0.07
  Total Weight: 38.38
[25]
  Absolute Liver Weight: 1.05 g
  Body Weight Gain: -0.002 g/day
  Epididymal Fat weight: 1.92
  Food Intake: 3.961 g/day
  Perirenal Fat weight: 0.21
  Retroperitoneal Fat weight: 0.55
  Total Fat (sum of the three fat deposits): 2.68
DIO mice, seven weeks, ORI 40 mg/kg, G1 300 mg/kg, FER = body weight gain (g/day)/food intake (g/day)
  Food Efficiency Ratio (FER): 0.000
[26]
  Food Intake: 3.961 g/day
  Retroperitoneal Fat: 0.55
  Weight Gain: -0.002 g/day
DIO mice, seven weeks, ORI 40 mg/kg, G1 1200 mg/kg, FER = body weight gain (g/day)/food intake (g/day)
  Food Efficiency Ratio (FER): 0.000
DIO mice, week 0 (baseline), G1-G4 1000 mg/kg oral gavage two times per day
  Animal Body Weight, week 0: 41.44 gram
[27]
  Animal Body Weight, week 1: 40.17 gram
  Weight Gain, week 1: −3.97 gram
[28]
  Animal Body Weight, week 2: 36.20 gram
  Weight Gain, week 2: −5.37 gram
[29]
  Animal Body Weight, week 3: 34.80 gram
  Weight Gain, week 3: −4.08 gram
[30]
  Animal Body Weight, week 4: 36.09 gram
  Weight Gain, week 4: −3.11 gram
[31]
  Animal Body Weight, week 5: 37.06 gram
  Weight Gain, week 5: −1.26 gram
[32]
  Animal Body Weight, week 6: 38.91 gram
  Weight Gain, week 6: 0.05 gram
[33]
  Animal Body Weight, week 7: 40.22 gram
  Weight Gain, week 7: 0.72 gram
DIO mice, 2-week, Compositions 1, 2 1300 mg/kg/day, 3, 9 1700 mg/kg/day, orlistat 40 mg/kg 2 times/day, sibutramine 10 mg/kg 1 time/day
  Weight Gain 2-week: −5.07
DIO mice, 2-week, doses as in Example 76
  Average Feed Intake 2-week: 2.79
DIO mice, 2 weeks, Mean, Weight Gain (g/day)/Feed Intake (g/day)
  Food Efficiency Ratio (FER) 2 weeks: −0.223
DIO mice, 7-week, Compositions 1, 2 1300 mg/kg/day, 3, 9 1700 mg/kg/day, orlistat 40 mg/kg 2 times/day, sibutramine 10 mg/kg 1 time/day
  Weight Gain 7-week: 0.56
DIO mice, 7-week, doses as in Example 76
  Average Feed Intake 7-week: 3.09
DIO mice, 7 weeks, Mean, Weight Gain (g/day)/Feed Intake (g/day)
  Food Efficiency Ratio (FER) 7 weeks: 0.005
DIO mice, Body weight gain (g/day)/Food intake (g/day), G1 = 800 mg/kg orally twice a day
  FER (Food efficiency ratio): −0.001
DIO mice, Body weight gain (g/day)/Food intake (g/day), G1 = 1,100 mg/kg orally twice a day
  FER (Food efficiency ratio): −0.001
DIO mice, Body weight gain (g/day)/Food intake (g/day), G1 = 1,200 mg/kg orally twice a day
  FER (Food efficiency ratio): −0.001
DIO mice, FER = Weight Gain (g/day)/Food intake (g/day)
  FER (Food efficiency ratio): 0.006
DIO mice, FER = body weight gain (g/day)/food intake (g/day), SIB 10 mg/kg, ORI 40 mg/kg, Mutamba extract 32 (G1) 1000 mg/kg, mean
  Food Efficiency Ratio (FER): 0.013
DIO mice, FER = body weight gain (g/day)/food intake (g/day), SIB 10 mg/kg, ORI 40 mg/kg, Mutamba extract 33-2 G1 1000 mg/kg, mean
  Food Efficiency Ratio (FER): 0.034
[34]
  Absolute Organ Weight, PeriRenal Fat: 0.388 g
  Absolute Organ Weight, Retroperitoneal Fat: 0.567 g
